Laboratory results as given in US4968686A, “Acyclic pyrrolo [2,3-d]pyrimidine analogs as antiviral agents” (The Regents of The University of Michigan, priority 1989, dated 1990).

Experiment: Growth of KB cells (population doubling times)
Format: cell-based, human
Conditions: human, kb cells; 100 μM; read-out: reduction of KB cell growth rate
Description: Population doubling times and cell viability were measured in uninfected HFF and/or KB cells. Cells were planted in replicate 6-well plastic tissue culture dishes or in 25 cm^2 flasks as described above in part 1. Following an incubation period during which cells attached to the substrate, medium was decanted, the cell sheet rinsed once with HBS, and fresh medium added. The medium consisted of MEM(E) with 1.1 gm NaHCO3 /liter and 10% fetal bovine or calf serum plus appropriate log or half-log concentrations of drug. After additional periods of incubation from 1 to 72 hours at 37° C., cells were harvested by means of 0.05% trypsin plus 0.02% EDTA in a HEPES-buffered salt solution. Cells were enumerated using either a Coulter counter or a hemocytometer and viability determining using trypsan blue dye exclusion.
In more extensive cytotoxicity testing, the halogenated compounds were tested for effects on the growth of KB cells. Populations doubling times were calculated from the logarithmic portions of growth curves and were as follows: […]

**Q.** For `OCC(CO)OCn1cc(Br)c2c(NO)ncnc21` [UMJD 299, 4-hydroxylamino-5-bromo-7-[(1,3-dihydroxy-2-propoxy)methyl]pyrrolo[2,3-d]pyrimidine], which inhibition at 100 µM is on record?
**A.** The inhibition at 100 µM was over 50%.
